Experimental data: paper PMC12040169 (PLOS Biology, 2025)

assay: in vitro; conditions: human, hela cells, % viability

SMILES | viability at 28.5 h, 10 µM
Nc1ncc(-c2ccc(-c3ccccc3F)cc2)c2cccnc12 [CBK067597] | 76.5%
O=C1CCC(=O)N1CCOc1nccnc1OC1CCN(Cc2ccccc2-c2ccccc2)CC1 [CBK084344] | 110%
COc1ccc(Oc2cncc(OC3CCN(CC(=O)Nc4c(C)cccc4C)C3)n2)cc1OC (centres unmarked) [CBK084403] | 101%
CN(C)CC1CN(c2nc(-c3ccncc3)nc3c2CCC3)CCO1 (centres unmarked) [CBK305824] | 83%
O=C(CSc1ncc(C(=O)O)n1-c1ccc(F)cc1)NCCc1ccc(F)cc1 [CBK297513] | 93.3%
COc1ccc2c(c1)c(C)c(C(=O)NC(C)Cc1ccccn1)n2C (centres unmarked) [CBK281425] | 98.6%
O=C(Nc1ccccc1Cl)Nc1[nH]nc(O)c1Cc1c(Cl)cccc1Cl [CBK089367] | 113%
Cc1c(CN2CCC(N(C)CCN(C)C)CC2)oc2ccccc12 [CBK282038] | 86.1%
Cc1ccc(-c2nccnc2OCCN2C(=O)c3ccccc3C2=O)c(C)c1 [CBK106981] | 90%
O=C(COc1ccc(-c2cnc3ccccc3n2)cc1)c1cccc([N+](=O)[O-])c1 [CBK266367] | 86.8%
CC(C)Oc1ncc(C(=O)NCCCC(=O)O)cc1Cl [CBK305192] | 107%
O=C(c1cc(F)cc(F)c1)N1CCC(c2cccnc2)CC1 [CBK283892] | 87.5%
COc1ccc(NC(=O)c2cc(C(C)C)n(-c3nc4ccccc4s3)n2)cc1 [CBK287667] | 100%
c1ccc(-c2noc(CN3CCN(C(c4ccccc4)c4ccccc4)CC3)n2)cc1 [CBK265844] | 101%
Cc1ccc(S(=O)(=O)N2CC=CCC2)cc1 [CBK058443] | 89%
Oc1c(C(Nc2cccnc2)c2cccs2)ccc2cccnc12 (centres unmarked) [CBK268637] | 72.4%
CCN(CC)C(=O)C1CCN(S(=O)(=O)c2ccc(C)cc2)CC1 [CBK157834] | 98.7%
CC(=O)N1C[C@@H]2C[C@H](C1)c1ccc(NC(=O)c3ccc(C#N)cc3)c(=O)n1C2 [CBK289202] | 90.6%
O=C(NC1CC2(CCOCC2)Oc2ccccc21)c1cccs1 (centres unmarked) [CBK285377] | 85.6%
COc1cc(Nc2nc(-c3ccco3)cn3ccnc23)cc(OC)c1OC [CBK037413] | 95.2%
NCCC(O)(P(=O)(O)O)P(=O)(O)O [CBK260913] | 97.6%
CNC(=O)CSc1nc2cc(Cl)ccc2c(=O)n1CC1CCCO1 (centres unmarked) [CBK305937] | 86.9%

SMILES | viability at 28.5 h, 10 µM
O=C(COc1ccc(Cl)cc1Cl)Nc1cccc(NC(=O)c2ccccc2Cl)c1 [CBK264726] | 105%
CC(C)OC(=O)Cn1c(C2CCNCC2)cc2cccnc21 [CBK285075] | 99.9%
O=C(NCc1cccnc1)c1csc2c1CCCC2 [CBK305029] | 86.4%
Cc1cc(C(=O)Nc2ccc(-c3nc4ccccc4s3)c(O)c2)ccc1[N+](=O)[O-] [CBK262820] | 92.6%
COc1ccc(C2=NN(c3ccccc3)C(c3ccc(OC)c(OC)c3C(=O)O)C2)cc1 (centres unmarked) [CBK262679] | 89.3%
O=C(O)COc1ccc(NC(=O)c2ccc3c(c2)C(=O)N(C2CCCCC2)C3=O)cc1 [CBK266009] | 92.1%
CCOC(=O)C1(C2CCCCC2)CCN(C(=O)CC2CCCCC2)CC1 [CBK136919] | 96.2%
COc1ccccc1-c1ccnc(N[C@H]2CO[C@H]3[C@@H]2OC[C@@H]3NC(=O)C2CCCCC2)n1 [CBK289529] | 94.8%
O=C(NCC1COc2ccccc2O1)c1cc(-c2ccc(Cl)cc2)cnc1N1CCOCC1 (centres unmarked) [CBK076286] | 94.9%
CN(C(=O)C1CC1)C1CCN(c2ncnc3ccccc23)CC1 [CBK304946] | 80%
O=C(O)c1cc(-c2c[nH]c3ccc(Cl)cc23)[nH]n1 [CBK287257] | 95%
CS(=O)(=O)N(CC(=O)NCc1ccccn1)c1ccc(C23CC4CC(CC(C4)C2)C3)cc1 [CBK268448] | 106%
Clc1cc(Nc2ccc3[nH]ccc3c2)n2nccc2n1 [CBK037009] | 84.7%
Cc1ccc(S(=O)(=O)NC(C)(C)CSc2nncn2C)cc1 [CBK266366] | 104%
O=C(O)c1ccc(-c2ccc(/C=C/c3[nH]c(=O)[nH]c(=O)c3[N+](=O)[O-])o2)cc1Cl [CBK267139] | 94.9%
O=C(O)c1cccc(NC(=O)c2ccc(S(=O)(=O)N3CCCCC3)cc2)c1 [CBK265185] | 86.1%
Cn1c(=O)n(C)c2cc(S(=O)(=O)NCC3(N)CCOCC3)ccc21 [CBK306266] | 113%
O=C(C1CN(S(=O)(=O)c2ccccc2)CCN1S(=O)(=O)c1ccccc1)N1CCCCC1 (centres unmarked) [CBK262686] | 86.4%
COc1ccc(-c2oc(C(=O)N(C)C)c(C(=O)O)c2-c2ccc(OC)cc2)cc1 [CBK001958] | 90.5%
O=C1/C(=C/c2ccc(OCc3ccccc3Cl)c(Cl)c2)SC(=S)N1Cc1cccnc1 [CBK264702] | 92.4%
O=C(N/N=C/c1ccc(C(=O)O)cc1)C(=O)Nc1cccc(Br)c1 [CBK262185] | 88.6%
O=C(O)c1cc(S(=O)(=O)NCc2ccco2)ccc1Cl [CBK058905] | 85.4%

SMILES | viability at 28.5 h, 10 µM
Cc1nc2n(n1)C1=CC(C)(C)CC(=O)C1=NN2 [CBK019050] | 89.2%
Cc1cc(C)n(CCCNC(=O)Nc2cccnc2)n1 [CBK304820] | 84.6%
COc1ccc(C2(CNC(C)(C)CN)CCCC2)cc1OC [CBK008989] | 104%
O=[N+]([O-])c1ccc(N2CCN(S(=O)(=O)Cc3ccccc3)CC2)cc1N1CCN(Cc2ccccc2)CC1 [CBK264951] | 101%
C=C(C)CN1CCN(CC(CC(=O)NCc2ccccc2)C(=O)O)CC1 (centres unmarked) [CBK286823] | 98.1%
NC(=O)CCNC(=O)c1ccc2[nH]ccc2c1 [CBK149082] | 102%
COc1ccc(C(c2ccccc2C)N(C)C(=O)C2CCN(C(C)=O)CC2)cn1 (centres unmarked) [CBK060490] | 90.8%
CCOC(=O)N1CCN(S(=O)(=O)c2ccc3c(c2)oc(=O)n3C)CC1 [CBK304667] | 105%
O=C(CCN1C(=O)c2cccc([N+](=O)[O-])c2C1=O)Nc1cccc(-c2cnc3ccccc3n2)c1 [CBK268620] | 104%
CN1CC[C@]2(c3ccc4c(c3)nnn4C)CC[C@@H](NC(=O)Nc3cc(F)cc(C(F)(F)F)c3)C[C@H]12 [CBK067800] | 99.2%
CN(CCO)C(=O)c1cn2cc(-c3cccs3)n(CC3CC3)c(=O)c2n1 [CBK307370] | 92.8%
CNC(=O)C1CCCCN1C(=O)c1cn(CCOC)c2ccccc12 (centres unmarked) [CBK306308] | 94.8%
C#CCNCc1ccc(O)cc1 [CBK013235C] | 87.4%
O=C(Nc1nnc(COc2ccccc2)s1)c1cccc2ccccc12 [CBK300487] | 97.6%
CN(C)C(=O)N1CCC2(CC1)CC(=O)N(Cc1ccc(S(C)(=O)=O)cc1)C2=O [CBK155957] | 104%
O=C(c1ccccc1NS(=O)(=O)c1cccc2cccnc12)N1CCOCC1 [CBK043338] | 87.1%
CS(=O)(=O)c1ccc(-c2cnc3ncccc3c2N)cc1 [CBK083687] | 97.5%
COC(=O)[C@H]1CN(C(=O)c2cnn(C)c2C)C[C@@H]1c1ccc(F)cc1 [CBK283721] | 84.5%
CSc1sc(C(=O)NC(=O)N2CCOCC2)c2c1-c1nocc1CC2 [CBK018284] | 74.3%
Cn1ncc2c(C(=O)O)cc(-c3ccccc3)nc21 [CBK288024] | 88.9%
O=C(O)c1ccc(CN2CCOC[C@H]2c2nc(-c3ccc(F)cc3)c[nH]2)cc1 [CBK289304] | 91.2%
CCN(CC)CC(=O)Nc1ccccc1OC [CBK266213C] | 113%

SMILES | viability at 28.5 h, 10 µM
O=C(Cc1c(F)cccc1F)Nc1ccc2[nH]ccc2c1 [CBK144712] | 120%
O=C(Cc1cccc2ccccc12)Nc1ccc2oc(-c3ccccc3)nc2c1 [CBK266286] | 96.3%
Cc1ccc(-c2csc3ncnc(SCc4csc(C)n4)c23)cc1 [CBK267244] | 91.7%
Cc1cc(NC(=O)CCn2c(C(F)F)cc3cccnc32)nn1C [CBK285071] | 90.2%
CC(C)[C@@H](CO)Nc1nccnc1-c1ccoc1 [CBK036648] | 86.6%
O=C(CN1CCOCC1)N1CCC(c2cccc(Cc3ccc(C(F)(F)F)cc3)n2)CC1 [CBK286508] | 101%
CCCc1cc(-c2c(Cl)cccc2Cl)[nH]n1 [CBK107818] | 91.2%
CC(=O)Nc1ccccc1NC(=O)c1ccccc1CCc1ccccc1 [CBK268621] | 97.1%
CCNC(=O)Nc1cc2cccnc2nc1-c1ccc(S(C)(=O)=O)cc1 [CBK070706] | 93.3%
N=c1n(CC(=O)c2ccc(-c3ccccc3)cc2)c2ccccc2n1Cc1ccccc1 [CBK262128B] | 99.3%
O=C1CCc2cccc(OCCOc3nccnc3N3CCNCC3)c21 [CBK200001G] | 101%
CCc1cnc(CNC(=O)NCc2nc3cc(C)ccc3n2C)s1 [CBK306261] | 98.9%
CC(C)(C)C1=CC2=NC3(CCC3)C3C[C@@](C)(O)[C@@H](O)[C@@H]3N2O1 (some centres unmarked) [CBK303263] | 112%
O=C1CC2(CCN(C(=O)C3CCCC3)CC2)Oc2ccc(F)cc21 [CBK283686] | 80.2%
Cc1ccc(N(Cc2ccco2)C(=O)c2cccc(S(=O)(=O)N3CCOCC3)c2)cc1 [CBK265857] | 96.4%
O=C(O)COc1ccc(S(=O)(=O)N2CCCc3ccccc32)cc1 [CBK269935] | 110%
Cc1nnc(CN(C)C2CCN(Cc3ccc4c(c3)CCC4)C2)n1C (centres unmarked) [CBK304450] | 104%
Fc1cccc(-c2nc3cnccn3c2NCc2cccs2)c1 [CBK282363] | 97.5%
COc1ccc(CCC(=O)N2CCCC(c3nccnc3-c3cccc(C)c3)C2)cc1 (centres unmarked) [CBK286510] | 99.6%

same assay, conditions: human, hela cells, % viability, bulk resorufin, single well

SMILES | viability at 28.5 h, 10 µM
Cc1nc2ccc(NC(=O)Nc3cccc(-c4ccc5c(c4)COC4(CCNCC4)O5)c3)cc2o1 [CBK113206] | 101%
